# Assay results published in paper PMC5380659, “Unique charge-dependent constraint on collagen recognition by integrin α10β1” (Matrix Biology, 2017).
# “Also recorded” adds a separate entry of the source.
# B1: collagen III: intact collagen III (protein)
# chain: QQEAVEGGCSHLGQSYADRDVWKPEPCQICVCDSGSVLCDDIICDDQELDCPNPEIPFGECCAVCPQPPTAPTRPPNGQGPQGPKGDPGPPGIPGRNGDPGIPGQPGSPGSPGPPGICESCPTGPQNYSPQYDSYDVKSGVAVGGLAGYPGPAGPPGPPGPPGTSGHPGSPGSPGYQGPPGEPGQAGPSGPPGPPGAIGPSGPAGKDGESGRPGRPGERGLPGPPGIKGPAGIPGFPGMKGHRGFDGRNGEKGETGAPGLKGENGLPGENGAPGPMGPRGAPGERGRPGLPGAAGARGNDGARGSDGQPGPPGPPGTAGFPGSPGAKGEVGPAGSPGSNGAPGQRGEPGPQGHAGAQGPPGPPGINGSPGGKGEMGPAGIPGAPGLMGARGPPGPAGANGAPGLRGGAGEPGKNGAKGEPGPRGERGEAGIPGVPGAKGEDGKDGSPGEPGANGLPGAAGERGAPGFRGPAGPNGIPGEKGPAGERGAPGPAGPRGAAGEPGRDGVPGGPGMRGMPGSPGGPGSDGKPGPPGSQGESGRPGPPGPSGPRGQPGVMGFPGPKGNDGAPGKNGERGGPGGPGPQGPPGKNGETGPQGPPGPTGPGGDKGDTGPPGPQGLQGLPGTGGPPGENGKPGEPGPKGDAGAPGAPGGKGDAGAPGERGPPGLAGAPGLRGGAGPPGPEGGKGAAGPPGPPGAAGTPGLQGMPGERGGLGSPGPKGDKGEPGGPGADGVPGKDGPRGPTGPIGPPGPAGQPGDKGEGGAPGLPGIAGPRGSPGERGETGPPGPAGFPGAPGQNGEPGGKGERGAPGEKGEGGPPGVAGPPGGSGPAGPPGPQGVKGERGSPGGPGAAGFPGARGLPGPPGSNGNPGPPGPSGSPGKDGPPGPAGNTGAPGSPGVSGPKGDAGQPGEKGSPGAQGPPGAPGPLGIAGITGARGLAGPPGMPGPRGSPGPQGVKGESGKPGANGLSGERGPPGPQGLPGLAGTAGEPGRDGNPGSDGLPGRDGSPGGKGDRGENGSPGAPGAPGHPGPPGPVGPAGKSGDRGESGPAGPAGAPGPAGSRGAPGPQGPRGDKGETGERGAAGIKGHRGFPGNPGAPGSPGPAGQQGAIGSPGPAGPRGPVGPSGPPGKDGTSGHPGPIGPPGPRGNRGERGSEGSPGHPGQPGPPGPPGAPGPCCGGVGAAAIAGIGGEKAGGFAPYYG
# Columns and labels:
# [1] = system: α10β1; assay: Overall recognition by α10β1 (I domain and C2C12-α10β1 cells, summary); settings: abstract and discussion; I domain and/or C2C12-α10β1 cells
# Description: I domain adhesion was determined colorimetrically, as described, here termed solid phase binding assay (SPBA). Peptides were coated at 10 μg/ml for 1 h at 22 °C on Immulon-2 HB 96-well plates (Thermo Life Sciences, Basingstoke, UK), and blocked for 1 h with 200 μl of TBS containing 50 mg/ml bovine serum albumin. Wells were washed four times with 200 μl of the adhesion buffer (TBS with 1 mg/ml bovine serum albumin) before adding 100 μl of adhesion buffer containing 10 μg/ml of recombinant GST I domains in the presence of either 2 mM MgCl2 or EDTA for 1 h at room temperature. Wells were washed five times with 200 μl of adhesion buffer containing MgCl2 or EDTA, before adding 100 μl of adhesion buffer containing the anti-GST-HRP conjugate at 1:10,000 dilution for 1 h at room temperature. After washing, colour was developed using an ImmunoPure TMB Substrate Kit (Pierce) according to the manufacturer's instructions.
# (§1) The mouse myoblast cell line, C2C12, (control and transfectants, C2C12-α1β1, C2C12-α2β1, C2C12-α10β1 or C2C12-α11β1) was maintained in RPMI medium containing 10% fetal bovine serum, 2 mM glutamine, 100 IU/ml penicillin, 100 μg/ml streptomycin, and 2.5 μg/ml amphotericin. Cells were harvested by centrifugation, washed, and suspended at 0.5 × 10^6/ml in Tris-buffered saline supplemented with 5.5 mM glucose and either 2 mM EDTA or 2 mM MgCl2. SPBA was performed as follows: 100 μl of the cell suspension was added to peptide-coated wells [42] at 20 °C for 60 min. Cell adhesion was determined colorimetrically after lysis, using a lactate dehydrogenase (LDH)-based cell detection kit (Roche Diagnostics) according to the supplier's instructions.
# (§2) To quantitate C2C12-α10β1 binding to collagen peptides, we used the impedance-based xCELLigence system (Acea) that allows label-free, dynamic monitoring of cell adhesion in real-time. The assay system expresses the adhesion-dependent rise in well impedance in units of cell index (CI), defined as (Rn − Rb) / 15; where Rn is the electrical impedance of each cell-containing well and Rb is the background impedance of the well with medium alone
# [2] = system: collagen-binding integrins; parameters: method as in 3 sources, ref [7], [8] = [7]; PMID 10778855; doi:10.1016/S0092-8674(00)80622-4; 7 Emsley J. Knight C.G. Farndale R.W. Barnes M.J. Liddington R.C. Structural basis of collagen recognition by integrin alpha2beta1 Cell 101 1 2000 47 56 10778855 10.1016/S0092-8674(00)80622-4 || [8]; PMID 16326707; doi:10.1074/jbc.M509818200; 8 Raynal N. Hamaia S.W. Siljander P.R. Maddox B. Peachey A.R. Fernandez R. Foley L.J. Slatter D.A. Jarvis G.E. Farndale R.W. Use of synthetic peptides to locate novel integrin alpha2beta1-binding moti ||| ref [8], [10] = [8]; PMID 16326707; doi:10.1074/jbc.M509818200; 8 Raynal N. Hamaia S.W. Siljander P.R. Maddox B. Peachey A.R. Fernandez R. Foley L.J. Slatter D.A. Jarvis G.E. Farndale R.W. Use of synthetic peptides to locate novel integrin alpha2beta1-binding moti || [10]; PMID 16043429; doi:10.1074/jbc.M502431200; 10 Kim J.K. Xu Y. Xu X. Keene D.R. Gurusiddappa S. Liang X. Wary K.K. Hook M. A novel binding site in collagen type III for the integrins, alpha 1beta 1 and alpha 2beta 1 J. Biol. Chem. 280 2005 32512 ||| ref [11] = [11]; PMID 10986291; doi:10.1074/jbc.M007668200; 11 Xu Y. Gurusiddappa S. Rich R.L. Owens R.T. Keene D.R. Mayne R. Hook A. Hook M. Multiple binding sites in collagen type I for the integrins α1β1 and α2β1 J. Biol. Chem. 275 2000 38981 38989 10986291; settings: ref [11]; cited from earlier work
# From the text: Many related motifs have now been identified using the Collagen Toolkits developed in this laboratory for the purpose. These are libraries of overlapping peptides of 27 amino acids of collagen primary sequence (guest sequence), flanked ...
# [3] = system: C2C12-α10β1 cells; assay: LDH-based SPBA of C2C12-α10β1 cell adhesion; parameters: species or system mouse; settings: short THPs, 2 mM Mg^2 +, 1 h, Fig. 4B
# Description: The mouse myoblast cell line, C2C12-α10β1 clone, expresses α10β1 as its sole collagen-binding integrin [16]. To investigate the binding of α10β1 to collagen in a cellular and whole integrin context, therefore, the adhesion of C2C12-α10β1 cells to Toolkits II and III was performed using two different approaches. First, SPBA was used, with lactate dehydrogenase to report the presence of adherent cells, after lysis, as described in Experimental. […] C2C12-α10B1 cells generally bound more prominently to those weaker peptides that supported just-observable binding of free I-domain. This may reflect avidity of the receptor-populated cell surface for the peptide-coated wells, or perhaps up-regulation of integrin affinity following receptor engagement. It is also possible that some cell binding reflects specific indirect interactions. For example, fibronectin, available either by intrinsic expression or from the serum supplement, binds well to II-44, and can also bind integrin αVβ3 [21].
# Fig. 2 Binding of α10β1-transfected C2C12 cells to Collagen Toolkits. 96-well plates were coated with peptides as for Fig. 1, then C2C12-α10β1 cells (5 × 10^4 per well) were added and incubated for 1 h in the presence of either 2 mM MgCl2 or 2 mM EDTA as above. A: binding to Toolkit II. B: binding to Toolkit III.
# as §1
# [4] = system: α2β1; parameters: method as in 4 sources, ref [8], [10] = [8]; PMID 16326707; doi:10.1074/jbc.M509818200; 8 Raynal N. Hamaia S.W. Siljander P.R. Maddox B. Peachey A.R. Fernandez R. Foley L.J. Slatter D.A. Jarvis G.E. Farndale R.W. Use of synthetic peptides to locate novel integrin alpha2beta1-binding moti || [10]; PMID 16043429; doi:10.1074/jbc.M502431200; 10 Kim J.K. Xu Y. Xu X. Keene D.R. Gurusiddappa S. Liang X. Wary K.K. Hook M. A novel binding site in collagen type III for the integrins, alpha 1beta 1 and alpha 2beta 1 J. Biol. Chem. 280 2005 32512 ||| ref not given ||| ref [4] = [4]; PMID 19693543; doi:10.1007/s00441-009-0834-6; 4 Barczyk M. Carracedo S. Gullberg D. Integrins Cell Tissue Res. 339 1 2010 269 280 19693543 10.1007/s00441-009-0834-6 PMC2784866 ||| ref [12] = [12]; PMID 22654115; doi:10.1074/jbc.M112.353144; 12 Hamaia S.W. Pugh N. Raynal N. Nemoz B. Stone R. Gullberg D. Bihan D. Farndale R.W. Mapping of potent and specific binding motifs, GLOGEN and GVOGEA, for integrin alpha1beta1 using collagen toolkits; settings: cited from earlier work
# [5] = system: integrin α1β1; parameters: method as in 3 sources, ref [4]; PMID 19693543; doi:10.1007/s00441-009-0834-6; 4 Barczyk M. Carracedo S. Gullberg D. Integrins Cell Tissue Res. 339 1 2010 269 280 19693543 10.1007/s00441-009-0834-6 PMC2784866 ||| ref [12] = [12]; PMID 22654115; doi:10.1074/jbc.M112.353144; 12 Hamaia S.W. Pugh N. Raynal N. Nemoz B. Stone R. Gullberg D. Bihan D. Farndale R.W. Mapping of potent and specific binding motifs, GLOGEN and GVOGEA, for integrin alpha1beta1 using collagen toolkits ||| ref not given; settings: ref [12]; cited from earlier work
# From the text: The collagen-binding integrin family is complete, with four established members, α1β1, α2β1, α10β1 and α11β1. These are highly-conserved, heterodimeric receptors with an important structural feature in common, the presence of an I (inserted) domain which contains the metal ion-dependent adhesion site (MIDAS). The MIDAS is a constellation of electronegative residues at the distal surface of this 200-residue domain that, in the resting, non-ligated state, can co-ordinate a Mg^2 + ion. […] Many related motifs have now been identified using the Collagen Toolkits developed in this laboratory for the purpose. These are libraries of overlapping peptides of 27 amino acids of collagen primary sequence (guest sequence), flanked ... || Why would collagen II differ in this respect?
# [6] = system: C2C12-α10β1 cells; assay: xCELLigence real-time adhesion of C2C12-α10β1 cells; format: cell-based, mouse; settings: 2.5 × 10^4 cells/well, 2 mM Mg^2 +, over 1 h, Fig. 3A
# Description: Fig. 3 Binding of α10β1-transfected C2C12 cells to collagens and selected Toolkit peptides. Peptides or collagens were coated on ePlates as described, then cells were added in the presence of 2 mM Mg^2 + or EDTA, and Cell Index value was collected over 1 h. […] B: time courses are shown of adhesion to selected Toolkit peptides or GPP-10.
# as §2
# Briefly, C2C12 cells were seeded at 2.5 × 10^4 cells/well in an E-plate (Roche Applied Science) pre-coated with peptides as for SPBA, and CI was measured for up to 2 h.
Molecule,"Recognition by α10β1, summary [1]",Adhesion of C2C12-α10β1 cells to short triple-helical peptides [3],other results
"GAOGER [integrin motif in collagens II, III, IV, VI, VII, IX]",weak ligand,,
"GASGER [integrin motif in collagens I, XXIII]",,,"Ligand of collagen-binding integrins, weak motifs [2]: weak ligands"
"GFOGEK [short triple-helical peptide; motif in collagens IV, VI, X]",now shown to bind α10β1,less well,
GKOGER [motif occurring only in collagen X and in the α2 chain of collagen I],compromised in the context of α10β1; also recorded: α10-repellent,,
GLKGEN [short triple-helical peptide containing GLKGEN],,less well,
"GLOGEA [short triple-helical peptide; motif in collagens IV, XI, XXVII]",,bound strongly,
GMOGER [short triple-helical peptide containing GMOGER],,less well,
"GRSGET [short THP containing GRSGET, motif unique to collagen II]",not recognised by α10β1; also recorded: α10-repellent,,
GVOGEA [integrin motif in collagen II],moderately good ligand for α10β1,,Affinity for α2β1 ([4]; ref [12]): little affinity for α2β1; Affinity for integrin α1β1 [5]: moderate ligand
collagen I: intact collagen I,,,"Preferred ligand of α2β1 ([4]; ref [4]): preferred ligand; Cell adhesion to collagens (Cell Index, endpoint) [6]: bound quite well"
B1,,,"Cell adhesion to collagens (Cell Index, endpoint) [6]: bound quite well"
